Toxic doses and inconclusive results are not listed. No stated cut-off is given here; in the data, active means T/C of 150% or more; inactive means T/C below 125%.
System: L1210 leukemia ip in BDF1 mice, survival T/C
Assay: NCI In Vivo Anticancer Drug Screen. Data for tumor model L1210 Leukemia (intraperitoneal) in B6D2F1 (BDF1) mice
Settings: endpoint: mean survival time, higher = longer survival
Outline: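 Tumor was transplanted into mice, which were then dosed with test compound or vehicle alone. Survival was recorded for each group, and the treated figure was expressed relative to the control figure.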

[1] = dose: 100.0 mg/kg/injection, schedule: Q01DX001 (ip), vehicle: saline
[2] = dose: 25.0 mg/kg/injection, schedule: Q01DX009 (ip), vehicle: saline
[3] = dose: 25.0 mg/kg/injection, schedule: Q04DX003 (ip), vehicle: saline
[4] = dose: 50.0 mg/kg/injection, schedule: Q01DX009 (ip), vehicle: saline
[5] = dose: 50.0 mg/kg/injection, schedule: Q04DX003 (ip), vehicle: saline
[6] = dose: 100.0 mg/kg/injection, schedule: Q04DX003 (ip), vehicle: saline
[7] = dose: 100.0 mg/kg/injection, schedule: Q04DX003 (ip), vehicle: saline with Tween-80
[8] = dose: 200.0 mg/kg/injection, schedule: Q04DX003 (ip), vehicle: saline with Tween-80
[9] = dose: 400.0 mg/kg/injection, schedule: Q04DX003 (ip), vehicle: saline with Tween-80
[10] = dose: 100.0 mg/kg/injection, schedule: Q01DX009 (ip), vehicle: saline with Tween-80
[11] = dose: 200.0 mg/kg/injection, schedule: Q01DX009 (ip), vehicle: saline with Tween-80
[12] = dose: 12.5 mg/kg/injection, schedule: Q01DX009 (ip), vehicle: saline
[13] = dose: 100.0 mg/kg/injection, schedule: Q04DX003 (ip), vehicle: Klucel (hydroxypropylcellulose) (HPC)
[14] = dose: 200.0 mg/kg/injection, schedule: Q04DX003 (ip), vehicle: Klucel (hydroxypropylcellulose) (HPC)
[15] = dose: 400.0 mg/kg/injection, schedule: Q04DX003 (ip), vehicle: Klucel (hydroxypropylcellulose) (HPC)
[16] = dose: 100.0 mg/kg/injection, schedule: Q01DX009 (ip), vehicle: Klucel (hydroxypropylcellulose) (HPC)
[17] = dose: 200.0 mg/kg/injection, schedule: Q01DX009 (ip), vehicle: Klucel (hydroxypropylcellulose) (HPC)
[18] = dose: 400.0 mg/kg/injection, schedule: Q01DX009 (ip), vehicle: Klucel (hydroxypropylcellulose) (HPC)
[19] = dose: 200.0 mg/kg/injection, schedule: Q04DX003 (ip), vehicle: saline
[20] = dose: 400.0 mg/kg/injection, schedule: Q04DX003 (ip), vehicle: saline

Measured: T/C

C[N+]1(CC2CO2)CCCCCC1 (configuration not stated)
inactive: dose: 75.0 mg/kg/injection, schedule: Q01DX001 (ip), vehicle: saline 95 % of control

Cc1c2oc3c(C)ccc(C(=O)NCCC(C)C)c3nc-2c(C(=O)NCCC(C)C)c(N)c1=O
inactive: dose: 10.0 mg/kg/injection, schedule: Q01DX001 (ip), vehicle: carboxymethylcellulose (CMC) 93 % of control

Cc1ccc(C)c(SC2CCCCC2=O)c1 (configuration not stated)
inactive: [1] 94 % of control | dose: 200.0 mg/kg/injection, schedule: Q01DX001 (ip), vehicle: saline 101 % of control | dose: 400.0 mg/kg/injection, schedule: Q01DX001 (ip), vehicle: saline 97 % of control

C/C(=N\[N+](C)(C)C)c1cccc(C)n1
inactive: [2] 97 % of control | [3] 107 % of control | [4] 105 % of control | [5] 102 % of control | [1] 103 % of control | dose: 100.0 mg/kg/injection, schedule: Q01DX009 (ip), vehicle: saline 100 % of control | [6] 100 % of control

CCCCCCCCCCCCCCCCCCNC(=O)N(C)Cc1ccccc1
inactive: dose: 100.0 mg/kg/injection, schedule: Q04DX002 (ip), vehicle: Klucel (hydroxypropylcellulose) (HPC) 99 % of control | dose: 200.0 mg/kg/injection, schedule: Q04DX002 (ip), vehicle: Klucel (hydroxypropylcellulose) (HPC) 96 % of control | dose: 400.0 mg/kg/injection, schedule: Q04DX002 (ip), vehicle: Klucel (hydroxypropylcellulose) (HPC) 96 % of control

[C-]#[N+]C(C)(CC)c1ccccc1 (configuration not stated)
inactive: dose: 6.25 mg/kg/injection, schedule: Q01DX009 (ip), vehicle: saline with Tween-80 93 % of control | dose: 6.25 mg/kg/injection, schedule: Q04DX003 (ip), vehicle: acetone 96 % of control | dose: 12.5 mg/kg/injection, schedule: Q01DX001 (ip), vehicle: acetone 91 % of control | dose: 12.5 mg/kg/injection, schedule: Q01DX009 (ip), vehicle: saline with Tween-80 95 % of control | dose: 12.5 mg/kg/injection, schedule: Q04DX003 (ip), vehicle: acetone 108 % of control | dose: 25.0 mg/kg/injection, schedule: Q01DX001 (ip), vehicle: acetone 96 % of control | dose: 25.0 mg/kg/injection, schedule: Q01DX009 (ip), vehicle: saline with Tween-80 95 % of control | dose: 25.0 mg/kg/injection, schedule: Q04DX003 (ip), vehicle: acetone 100 % of control

O=C(Nc1ccc(NC(=O)Nc2cc(C3=NCCN3)cc(C3=NCCN3)c2)cc1)Nc1cc(C2=NCCN2)cc(C2=NCCN2)c1
inactive: dose: 15.0 mg/kg/injection, schedule: Q01DX Z (ip), vehicle: saline 90 % of control

O=Cc1ccc(N(c2ccc(C=O)cc2)c2ccc(C=O)cc2)cc1
inactive: [7] 100 % of control | [8] 89 % of control | [9] 92 % of control

CCOCc1nc(N)nc(N)c1-c1cccc(Cl)c1
inactive: [10] 104 % of control | [11] 117 % of control

COC(=O)[C@H]1[C@H]2C[C@@H]3c4[nH]c5cc(OC)ccc5c4CCN3C[C@H]2C[C@@H](OC(=O)c2cc(OC)c(OC)c(OC)c2)[C@@H]1OC
inactive: dose: 1.0 mg/kg/injection, schedule: Q01DX Z (ip), vehicle: carboxymethylcellulose (CMC) 100 % of control | dose: 1.56 mg/kg/injection, schedule: Q01DX001 (ip), vehicle: other 100 % of control | dose: 1.56 mg/kg/injection, schedule: Q01DX009 (ip), vehicle: saline 111 % of control | dose: 1.56 mg/kg/injection, schedule: Q04DX003 (ip), vehicle: other 95 % of control | dose: 2.0 mg/kg/injection, schedule: Q01DX Z (ip), vehicle: carboxymethylcellulose (CMC) 100 % of control | dose: 3.12 mg/kg/injection, schedule: Q01DX001 (ip), vehicle: other 96 % of control | dose: 3.12 mg/kg/injection, schedule: Q01DX009 (ip), vehicle: saline 109 % of control | dose: 3.12 mg/kg/injection, schedule: Q04DX003 (ip), vehicle: other 95 % of control | dose: 5.0 mg/kg/injection, schedule: Q01DX001 (ip), vehicle: other 92 % of control | dose: 5.25 mg/kg/injection, schedule: Q01DX009 (ip), vehicle: other 98 % of control | dose: 6.25 mg/kg/injection, schedule: Q01DX001 (ip), vehicle: other 96 % of control | dose: 6.25 mg/kg/injection, schedule: Q01DX009 (ip), vehicle: saline 101 % of control | dose: 6.25 mg/kg/injection, schedule: Q04DX003 (ip), vehicle: other 115 % of control | dose: 6.25 mg/kg/injection, schedule: Q04DX003 (ip), vehicle: saline 90 % of control | dose: 9.2 mg/kg/injection, schedule: Q04DX003 (ip), vehicle: other 101 % of control | dose: 10.0 mg/kg/injection, schedule: Q01DX001 (ip), vehicle: other 100 % of control | dose: 12.5 mg/kg/injection, schedule: Q01DX001 (ip), vehicle: carboxymethylcellulose (CMC) 103 % of control | [12] 104 % of control | dose: 12.5 mg/kg/injection, schedule: Q04DX003 (ip), vehicle: saline 108 % of control | dose: 14.0 mg/kg/injection, schedule: Q04DX003 (ip), vehicle: other 88 % of control | dose: 20.0 mg/kg/injection, schedule: Q01DX001 (ip), vehicle: other 97 % of control | dose: 21.0 mg/kg/injection, schedule: Q04DX003 (ip), vehicle: other 95 % of control | [2] 92 % of control | [3] 103 % of control | dose: 40.0 mg/kg/injection, schedule: Q01DX001 (ip), vehicle: other 97 % of control | dose: 80.0 mg/kg/injection, schedule: Q01DX001 (ip), vehicle: other 94 % of control

COC(=O)C1=C(C)NC(=S)NC1c1ccc(N(CCCl)CCCl)cc1Cl (configuration not stated)
inactive: [13] 95 % of control | [14] 95 % of control | [15] 101 % of control

O=S(=O)(/N=C1\C=CC(Br)=C\C1=N/S(=O)(=O)c1ccccc1)c1ccccc1
inactive: dose: 100.0 mg/kg/injection, schedule: Q01DX001 (ip), vehicle: Klucel (hydroxypropylcellulose) (HPC) 89 % of control | dose: 200.0 mg/kg/injection, schedule: Q01DX001 (ip), vehicle: Klucel (hydroxypropylcellulose) (HPC) 106 % of control | dose: 400.0 mg/kg/injection, schedule: Q01DX001 (ip), vehicle: Klucel (hydroxypropylcellulose) (HPC) 101 % of control

COc1ccc(S(=O)(=O)Nc2cc([N+](=O)[O-])ccc2OC)cc1
inactive: [16] 103 % of control | [17] 97 % of control | [18] 95 % of control

O=c1cc(Cc2ccccc2)[nH]c(=S)[nH]1
inactive: [10] 94 % of control | [7] 99 % of control | [11] 93 % of control | [8] 97 % of control | dose: 400.0 mg/kg/injection, schedule: Q01DX009 (ip), vehicle: saline with Tween-80 96 % of control | [9] 100 % of control

O=C(n1ccnc1)C(F)(F)C(F)(F)C(F)(F)F
inactive: dose: 100.0 mg/kg/injection, schedule: Q01DX001 (ip), vehicle: saline sonified 101 % of control | [6] 96 % of control | dose: 200.0 mg/kg/injection, schedule: Q01DX001 (ip), vehicle: saline sonified 110 % of control | [19] 96 % of control | dose: 400.0 mg/kg/injection, schedule: Q01DX001 (ip), vehicle: saline sonified 106 % of control | [20] 89 % of control

CN(C)CCSC(=O)N1c2ccccc2C(C)(C)c2ccccc21
inactive: [12] 94 % of control | [2] 100 % of control | [3] 91 % of control | [4] 111 % of control | [5] 102 % of control | [6] 96 % of control | [19] 90 % of control

O=C(O)C1CCC(C(=O)O)NC1 (configuration not stated)
inactive: [6] 106 % of control | [19] 102 % of control | [20] 101 % of control

CN1CNC(=O)NC1
inactive: [16] 113 % of control | [13] 105 % of control | [17] 105 % of control | [14] 105 % of control | [18] 103 % of control | [15] 111 % of control
